# Several values for one entry are separate records, joined by “and”; a condition that tells them apart may be missing. Equal values may be shown once.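 Tested at 5 concentrations; 48 h exposure; 96-well plates; endpoints linearly interpolated, else capped at highest concentration. GI50 marks 50% less growth. TGI denotes the concentration required for complete inhibition of growth.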
# Experiments:
# Assay in all cases: DTP human tumour cell line panel, 48 h
# NCI-H23 lung = test system: NCI-H23 lung
# SK-MEL-5 melanoma = test system: SK-MEL-5 melanoma
# 786-0 renal = test system: 786-0 renal
# A549 NSCLC = test system: A549 NSCLC
# HT29 colon = test system: HT29 colon
# MCF7 breast = test system: MCF7 breast
# SF-268 CNS = test system: SF-268 CNS
# NCI-H522 lung = test system: NCI-H522 lung
# NCI-H226 lung = test system: NCI-H226 lung
# NCI/ADR-RES ovarian = test system: NCI/ADR-RES ovarian
SMILES,TGI (NCI-H23 lung) [µM],TGI (SK-MEL-5 melanoma) [µM],TGI (786-0 renal) [µM],TGI (A549 NSCLC),TGI (HT29 colon) [µM],TGI (MCF7 breast),TGI (SF-268 CNS) [µM],TGI (NCI-H522 lung),TGI (NCI-H226 lung),TGI (NCI/ADR-RES ovarian),GI50 (NCI-H23 lung) [µM],GI50 (SK-MEL-5 melanoma) [µM],GI50 (786-0 renal) [µM],GI50 (A549 NSCLC) [µM],GI50 (HT29 colon) [µM],GI50 (MCF7 breast) [µM],GI50 (SF-268 CNS) [µM],GI50 (NCI-H226 lung) [µM],GI50 (NCI/ADR-RES ovarian) [µM],GI50 (NCI-H522 lung) [µM]
COc1cccc(/C=C/c2ccnc3ccccc23)c1OC,> 10,> 10,> 10,> 10 µM,> 10,> 10 µM,> 10,> 10 µM,> 10 µM,> 10 µM,,,,,,,,,,
CCN(CC)c1ccc(C2NC(=O)c3ccccc3N2)cc1 (centres undefined),> 100,> 100,> 41.2,> 100 µM,> 20.8,> 100 µM,> 100,> 100 µM,> 100 µM,> 100 µM,,,,,,,,,,
N#C/C(=C\c1cc(O)ccc1O)C(N)=O,> 100,,> 100,> 100 µM,> 100,,> 100,41 µM,95.4 µM,,,,,,,,,,,
CCN(CC)c1ccc2nc3c4ccccc4c(=O)cc-3n(-c3ccccc3)c2c1,9.09,1.74,8.86,3.96 µM,8.42,7.83 µM,12.9,,5.81 µM,7.86 µM,2.18,0.444,2.66,1.45,0.902,0.53,2.85,2.04,2.34,
COc1cccc2nc3ccccc3nc12,> 100,> 100,> 100,> 100 µM,> 100,> 100 µM,> 100,,> 100 µM,> 100 µM,,,,,,,,,,
CCN(CC)CCN1C(=O)C2C3C(=O)CC(C)(CC3C)C2C1=O (centres undefined),> 100,> 100,> 100,> 100 µM,> 100,,> 100,> 100 µM,> 100 µM,> 100 µM,> 100,> 100,> 100,> 100,> 100,,> 100,> 100,> 100,> 100
O=C(CO[N+](=O)[O-])OC/C=C/c1ccccc1,> 100,,> 100,> 100 µM,> 100,,> 100,> 100 µM,> 100 µM,,,,,,,,,,,
CN(C)C(=O)NC(=S)N(C)C,> 100,> 100,> 100,> 100 µM,> 100,,> 100,> 100 µM,> 100 µM,,,,,,,,,,,
COc1ccc(-c2[nH]nc(N)c2-c2cc(OC)c3c(c2)OCO3)cc1,> 100,8.97,> 100,> 100 µM,25.7,> 100 µM,> 100,,> 100 µM,8.48 µM,3.87,2.85,7.82,4.73,3.65,3.83,4.74,8.36,2.33,
CN(NC1OC(CO)C(O)C(O)C1O)c1ccccc1 (centres undefined),> 100,> 100,> 100,> 100 µM,> 100,,> 100,> 100 µM,> 100 µM,,,,,,,,,,,
COc1ccc(-c2ccccc2)c2[nH]c3c(c12)CCNC3=O,> 100,> 100,> 100,> 100 µM,> 100,,> 100,> 100 µM,> 100 µM,,,,,,,,,,,
O=C(N/C(=C\c1ccccc1Cl)c1nc2ccccc2[nH]1)c1ccccc1,> 100,34.2,> 100,> 100 µM,87.2,,> 100,72.5 µM,,,,,,,,,,,,
c1ccc(-c2n(Cc3ccc4ccccc4c3)cc[n+]2Cc2ccc3ccccc3c2)cc1,2.35,1.69,3.02,,,,,,,35.4 µM,0.775,0.481,1.46,,,,,,13.9,
Clc1ccc2ncc(-c3cccc(NC4CNC4)n3)n2c1,36.3,76.1,> 100,> 100 µM,> 100,52.3 µM,33,27.9 µM,,> 100 µM,7.66,16.1,7.96,4.71,3.21,4.64,8.7,,33.5,6.13
Cc1cc(=O)n(-c2c(C)cccc2Cl)c(/C=C(\O)c2ccncc2)n1,> 100,> 100,> 100,> 100 µM,> 100,,> 100,> 100 µM,> 100 µM,,,,,,,,,,,
COc1cc(/C=C/c2ccc(Br)cc2)cc(OC)c1OC,> 81.2,20.4,52.9,> 100 µM,> 39.3,,31.2,46.1 µM,56.6 µM,,,,,,,,,,,
COc1ccc2c(c1)[n+](=O)c(C(=O)C/C(=N/NC(=O)C[N+](C)(C)C)C(=O)Nc1cccc(C)c1C)c(C)n2O,> 100,,> 100,> 100 µM,> 100,,> 100,> 100 µM,> 100 µM,,,,,,,,,,,
CC1=C(C(=O)NCc2ccccc2)C(c2ccccc2C)C(C(=O)NCc2ccccc2)=C(C)N1,> 93.6,> 100,67,> 100 µM,73,,57.6,66.2 µM,> 84.6 µM,,,,,,,,,,,
CC(=O)OCC1OC(OCc2ccccc2)C(Br)C(OC(C)=O)C1OC(C)=O (centres undefined),> 100,> 100,> 100,> 100 µM,> 100,,> 100,> 100 µM,> 100 µM,,,,,,,,,,,
CC(C)N(C(=O)C12C3C4C1C1C2C3C41I)C(C)C (centres undefined),> 100,> 100,> 100,> 100 µM,> 100,,> 100,> 100 µM,> 100 µM,,,,,,,,,,,
COC1OC(CBr)C(OC(=O)c2ccccc2)C(OS(=O)(=O)c2ccc(C)cc2)C1Br (centres undefined),> 100,,> 100,> 100 µM,> 100,,> 100,> 100 µM,,,,,,,,,,,,
COC(=O)C1(C)CC2C(C)(CCC3(C)C4=CC=C5C(=CC(=O)C(O)=C5C)C4(C)CCC23C)CC1O (centres undefined),,3.28,0.477,4.94 µM,2.53,2.86 µM,2.63,0.54 µM,4.46 µM,2.93 µM,,,,,,,,,,

SMILES,TGI (NCI-H23 lung) [µM],TGI (SK-MEL-5 melanoma) [µM],TGI (786-0 renal) [µM],TGI (A549 NSCLC),TGI (HT29 colon) [µM],TGI (MCF7 breast),TGI (SF-268 CNS) [µM],TGI (NCI-H522 lung),TGI (NCI-H226 lung),TGI (NCI/ADR-RES ovarian),GI50 (NCI-H23 lung) [µM],GI50 (SK-MEL-5 melanoma) [µM],GI50 (786-0 renal) [µM],GI50 (A549 NSCLC) [µM],GI50 (HT29 colon) [µM],GI50 (MCF7 breast) [µM],GI50 (SF-268 CNS) [µM],GI50 (NCI-H226 lung) [µM],GI50 (NCI/ADR-RES ovarian) [µM],GI50 (NCI-H522 lung) [µM]
O=C1c2ccccc2C(=O)c2c1ccc1c(=O)n(-c3ccccc3C(F)(F)F)nnc21,3.51,3.05,> 100,,> 100,4.64 µM,> 100,5.71 µM,5.87 µM,9.23 µM,1.34,1.67,4.09,,3.43,1.86,2.74,2.38,2.05,1.81
COc1cc2c(cc1O)CN1CCC23C=C[C@@H](O)CC13 (some centres undefined),> 100,> 100,> 100,> 100 µM,> 100,,> 100,> 100 µM,> 100 µM,,,,,,,,,,,
O=S(=O)(c1ccccc1)N1CN2CN(C1)CN(S(=O)(=O)c1ccccc1)C2,> 100,> 100,> 100,> 100 µM,> 100,> 100 µM,,,> 100 µM,> 100 µM,,,,,,,,,,
O=C(N/N=C(/c1nc2ccc([N+](=O)[O-])cc2[nH]c1=O)C(O)c1ccc([N+](=O)[O-])cc1)c1ccncc1 (centres undefined),> 100,> 100,> 100,> 100 µM,> 100,,> 100,> 100 µM,> 100 µM,,,,,,,,,,,
COc1ccc(S(=O)(=O)N[C@H](C(=O)O)c2ccccc2)cc1,> 100,> 100,> 100,> 100 µM,> 100,,> 100,,> 100 µM,,,,,,,,,,,
CN(C)CCn1cnc2ncccc2c1=O,> 100,> 100,> 100,> 100 µM,> 100,,> 100,> 100 µM,> 100 µM,,,,,,,,,,,
CCN(CC)CC(=O)NC1c2ccccc2Oc2c(C)cccc21 (centres undefined),> 100,> 100,> 100,> 100 µM,> 100,,> 100,,> 100 µM,,,,,,,,,,,
C=C1C(=O)O[C@H]2[C@H]1CC/C(Cn1cc(-c3cccc(Cl)c3)nn1)=C\CC[C@@]1(C)O[C@@H]21,3.27,3.08,1.87,3.57 µM,1.73,,3.46,1.09 µM,3.75 µM,8.39 µM,1.58,1.7,0.506,1.79,0.51,,1.59,1.71,2.39,0.291
Cc1ccc(-c2nc(N3CCNCC3)c3oc(-c4ccccc4)nc3n2)cc1,16.7,,3.25,3.13 µM,3.32,3.75 µM,5.07,3.43 µM,,,3.07,,1.77,1.66,1.78,1.85,2.07,,,1.64
COc1cc(-c2ccc(NC(=O)SCCC(=O)O)cc2OC)ccc1NC(=O)SCCC(=O)O,> 100,> 100,> 100,> 100 µM,> 100,,> 100,> 100 µM,> 100 µM,,,,,,,,,,,
CC(=O)OC(C)(C)/C=C/C(=O)[C@](C)(O)[C@H]1[C@H](O)C[C@@]2(C)[C@@H]3CC=C4[C@@H](C=C(O)C(=O)C4(C)C)[C@]3(C)C(=O)C[C@]12C,,,,6.51 µM and 1.23 µM and 2.65 µM,,3.6 µM and 1.77 µM and 1.86 µM,,196 nM [middle of 4 runs],93.7 nM [middle of 4 runs],5.45 µM and 6.12 µM and 5.39 µM,,,0.0154,,,,,,,
COC1[C@H](NC(=O)OC(C)(C)C)C(=O)N1Cc1ccccc1 (some centres undefined),> 100,> 100,> 100,> 100 µM,> 100,,> 100,,> 100 µM,,,,,,,,,,,
O=CNc1ccc(S(=O)(=O)c2ccc(NC=O)cc2)cc1,> 100,> 100,> 100,> 100 µM,> 100,> 100 µM,> 100,> 100 µM,,> 100 µM,,,,,,,,,,
CCOC(=O)C(NO)C(Sc1ccccc1)c1ccc(OC)cc1 (centres undefined),> 100,> 100,> 100,> 100 µM,> 100,,> 100,> 100 µM,> 100 µM,,,,,,,,,,,
CC1CCC(=O)C(C(O)CC2CC(=O)N(c3ccccc3)C(=O)C2)C1 (centres undefined),> 100,,> 100,> 100 µM,> 100,,> 100,> 100 µM,> 100 µM,,,,,,,,,,,
OCc1ccc(N2CCc3cc(F)ccc3C2)cc1Cl,30.2,20.4,22.7,14.5 µM,14.1,13.3 µM,29.9,25.9 µM,,33.7 µM,12.8,3.95,8.64,0.389,0.167,0.0771,15.2,,11.3,12.7
COC1=C(OC)C(=O)C(Sc2ccc3ccccc3c2)=CC1=O,33.1,13.9,16.3,32.3 µM,37.8,43.9 µM,36.3,,27.2 µM,69.6 µM,,,,,,,,,,
CCCCCCCCCCCCCCCCc1c(C(=O)OC)nc(NN)[nH]c1=O,> 50,> 50,> 50,> 50 µM,> 50,,> 50,> 50 µM,,,,,,,,,,,,
Clc1ccc(CCc2ccncn2)c(Cl)c1,> 100,51.2,> 100,> 100 µM,> 100,,> 100,> 100 µM,> 100 µM,,,,,,,,,,,
CCCCCCCCCCSC(=O)NC,99.8,45.6,> 100,> 100 µM,77,,> 100,54.6 µM,,,,,,,,,,,,
O=C1c2cccnc2C(=O)c2c1c(C(=O)NCCn1ccnc1)c1ccccn21,4.21,2.26,37.6,6.82 µM,9.2,3.37 µM,16.8,4.67 µM,,> 100 µM,1.18,1.06,5.47,1.6,2.53,1.19,2.86,,27.4,1.82

# Source: PubChem BioAssay (NCI)
